Tests used:
[1] = molecular target: KRAS G12S (Homo sapiens (Human), UniProt P01116+P62937, G12S); assay: Ras-Raf (BRAF RBD) disruption / FRET / MOA assay, KRAS G12S; assay type: biochemical; settings: Ras-Raf disruption/FRET/MOA assay; class symbols; read-out: KRAS G12S FRET data IC50
Method: (§1) The purpose of this biochemical assay is to measure the ability of test compounds to facilitate ternary complex formation between a nucleotide-loaded Ras isoform and cyclophilin A; the resulting ternary complex disrupts binding to a BRAF^RBD construct, inhibiting Ras signaling through a RAF effector.
(§2) Compound is present in plate wells as a 10-point 3-fold dilution series starting at a final concentration of 30 μM. After incubation at 25° C. for 3 hours, a mixture of Anti-His Eu-W1024 and anti-GST allophycocyanin is then added to assay sample wells at final concentrations of 10 nM and 50 nM, respectively, and the reaction incubated for an additional 1.5 hours. […] Compounds that facilitate disruption of a Ras:RAF complex are identified as those eliciting a decrease in the TR-FRET ratio relative to DMSO control wells.
(§3) This protocol may also be executed substituting other Ras proteins or nucleotides.
(§4) The purpose of this biochemical assay was to measure the ability of test compounds to facilitate ternary complex formation between a nucleotide-loaded K-Ras isoform and Cyclophilin A; the resulting ternary complex disrupts binding to a BRAF^RBD construct, inhibiting K-Ras signaling through a RAF effector. Data is reported as IC50 values.
as §2, with “Compound was” for “Compound is”, “allophycocyanin was” for “allophycocyanin is”, “a K-Ras:RAF” for “a Ras:RAF”, “complex were” for “complex are”

[2] = molecular target: KRAS G12D (Homo sapiens (Human), UniProt P01116+P62937, G12D); assay: Ras-Raf (BRAF RBD) disruption / FRET / MOA assay, KRAS G12D; assay type: biochemical; settings: Ras-Raf disruption/FRET/MOA assay; class symbols; read-out: KRAS G12D FRET data IC50
Chain of KRAS G12D (P01116-2 other isoform, or with tags, fused parts or gaps G12D): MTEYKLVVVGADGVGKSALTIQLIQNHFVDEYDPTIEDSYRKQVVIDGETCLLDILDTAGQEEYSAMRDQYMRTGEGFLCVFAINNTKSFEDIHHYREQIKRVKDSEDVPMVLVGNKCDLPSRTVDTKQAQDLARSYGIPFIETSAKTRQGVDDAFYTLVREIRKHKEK
Chain of KRAS G12D (P62937 whole entry): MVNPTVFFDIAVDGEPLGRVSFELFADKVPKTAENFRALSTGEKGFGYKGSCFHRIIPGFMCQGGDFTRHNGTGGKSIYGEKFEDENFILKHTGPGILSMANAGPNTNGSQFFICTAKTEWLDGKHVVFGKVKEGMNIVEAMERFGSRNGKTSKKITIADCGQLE
Method: as §1, §2, §3, §4
as §2, with “Compound was” for “Compound is”, “allophycocyanin was” for “allophycocyanin is”, “a K-Ras:RAF” for “a Ras:RAF”, “complex were” for “complex are”

Chain of KRAS G12S (P01116-2 other isoform, or with tags, fused parts or gaps G12S): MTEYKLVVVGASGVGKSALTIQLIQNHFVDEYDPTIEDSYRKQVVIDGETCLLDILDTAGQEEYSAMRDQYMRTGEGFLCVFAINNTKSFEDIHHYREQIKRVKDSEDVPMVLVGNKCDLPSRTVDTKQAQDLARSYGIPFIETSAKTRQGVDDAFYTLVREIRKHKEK
Chain of KRAS G12S (P62937 whole entry, canonical isoform): as the sequence (P62937 whole entry) above

| SMILES | IC50 [1] | IC50 [2] |
| --- | --- | --- |
| CCn1c(-c2ccccc2CN(C)C)c2c3cc(ccc31)-c1cc(O)cc(c1)C[C@H](NC(=O)[C@H](C(C)C)N(C)C(=O)c1ccc(NC(=O)/C=C/CN(C)C)cn1)C(=O)N1CCC[C@H](N1)C(=O)OCC(C)(C)C2 [Example A046] | > 10 µM | 1 to 10 µM |
| CCn1c(-c2ccccc2CN(C)C)c2c3cc(ccc31)-c1cc(O)cc(c1)C[C@H](NC(=O)[C@H](C(C)C)N(C)C(=O)c1ccc(NC(=O)/C=C/CN(C)C)cc1)C(=O)N1CCC[C@H](N1)C(=O)OCC(C)(C)C2 [Example A049] | > 10 µM | > 10 µM |
| C=CC(=O)N1CC[C@H](C(=O)N(C)[C@H](C(=O)N[C@H]2Cc3cc(O)cc(c3)-c3ccc4c(c3)c(c(-c3ccc(CN(C)C)cc3COC)n4CC)CC(C)(C)COC(=O)[C@@H]3CCCN(N3)C2=O)C(C)C)C1 [Example A051] | 0.1 to 1 µM | 1 to 10 µM |
| C=CC(=O)N1C[C@H](C)[C@H](C(=O)N(C)[C@H](C(=O)N[C@H]2Cc3cc(O)cc(c3)-c3ccc4c(c3)c(c(-c3ccccc3CN(C)C)n4CC)CC(C)(C)COC(=O)[C@@H]3CCCN(N3)C2=O)C(C)C)C1 [Example A052] | 0.1 to 1 µM | 1 to 10 µM |
| C=CC(=O)N1CC[C@H](C(=O)N(C)[C@H](C(=O)N[C@H]2Cc3cc(O)cc(c3)-c3ccc4c(c3)c(c(-c3cccnc3COC)n4CC)CC(C)(C)COC(=O)[C@@H]3CCCN(N3)C2=O)C2CCCC2)C1 [Example A055] | 0.1 to 1 µM | 1 to 10 µM |
| C=CC(=O)N1C[C@H](C)[C@H](C(=O)N(C)[C@H](C(=O)N[C@H]2Cc3cc(O)cc(c3)-c3ccc4c(c3)c(c(-c3cccnc3COC)n4CC)CC(C)(C)COC(=O)[C@@H]3CCCN(N3)C2=O)C(C)C)C1 [Example A056] | 0.1 to 1 µM | 1 to 10 µM |
| C=CC(=O)N1C[C@H](C)[C@H](C(=O)N(C)[C@H](C(=O)N[C@H]2Cc3cc(O)cc(c3)-c3ccc4c(c3)c(c(-c3cccnc3COC)n4CC)CC(C)(C)COC(=O)[C@@H]3CCCN(N3)C2=O)C2CCCC2)C1 [Example A057] | 0.1 to 1 µM | 1 to 10 µM |
| C=CC(=O)N1CC[C@H](C(=O)N(C)[C@H](C(=O)N[C@H]2Cc3cc(O)cc(c3)-c3ccc4c(c3)c(c(C3=C(COC)COCC3)n4CC)CC(C)(C)COC(=O)[C@@H]3CCCN(N3)C2=O)C(C)C)C1 [Example A058] | 0.1 to 1 µM | 1 to 10 µM |
| C=CC(=O)N1CC[C@H](C(=O)N(C)[C@H](C(=O)N[C@H]2Cc3cc(OC(C)=O)cc(c3)-c3ccc4c(c3)c(c(-c3ccccc3CN(C)C)n4CC)CC(C)(C)COC(=O)[C@@H]3CCCN(N3)C2=O)C(C)C)C1 [Example A059] | > 10 µM | > 10 µM |
| C=CC(=O)N1CC[C@H](C(=O)N(C)[C@H](C(=O)N[C@H]2Cc3cc(O)cc(c3)-c3ccc4c(c3)c(c(-c3cccnc3COC)n4C)CC(C)(C)COC(=O)[C@@H]3CCCN(N3)C2=O)C(C)C)C1 [Example A066] | 1 to 10 µM | > 10 µM |
| C=CC(=O)N1CC[C@@]2(CCN([C@H](C(=O)N[C@H]3Cc4cc(O)cc(c4)-c4ccc5c(c4)c(c(-c4ccccc4CCOC)n5CC)CC(C)(C)COC(=O)[C@@H]4CCCN(N4)C3=O)C(C)C)C2=O)C1 [Example A068] | 1 to 10 µM | > 10 µM |
| C=CC(=O)N1CC[C@H](C(=O)N(C)[C@H](C(=O)N[C@H]2Cc3cc(O)cc(c3)-c3ccc4c(c3)c(c(-c3cncc(CN(C)C)c3)n4CC)CC(C)(C)COC(=O)[C@@H]3CCCN(N3)C2=O)C(C)C)C1 [Example A073] | 1 to 10 µM | > 10 µM |
| C=CC(=O)N1CC[C@H](C(=O)N(C)[C@H](C(=O)N[C@H]2Cc3cc(OC(=O)N(C)CC(=O)O)cc(c3)-c3ccc4c(c3)c(c(-c3ccccc3CCOC)n4CC)CC(C)(C)COC(=O)[C@@H]3CCCN(N3)C2=O)C(C)C)C1 [Example A078] | > 10 µM | > 10 µM |
| CCn1c(-c2ccccc2COC)c2c3cc(ccc31)-c1cc(O)cc(c1)C[C@H](NC(=O)[C@H](C(C)C)N(C)C(=O)[C@H]1CCN(C(=O)/C=C/CN(C)C)C1)C(=O)N1CCC[C@H](N1)C(=O)OCC(C)(C)C2 [Example A079] | 0.1 to 1 µM | 1 to 10 µM |
| C=CC(=O)N1CC[C@H](C(=O)N(C)[C@H](C(=O)N[C@H]2Cc3cc(O)cc(c3)-c3ccc4c(c3)c(c(-c3c(CCOC)cccc3OC)n4CC)CC(C)(C)COC(=O)[C@@H]3CCCN(N3)C2=O)C(C)C)C1 [Example A080] | > 10 µM | > 10 µM |
| C=CC(=O)N1CC[C@H](C(=O)N(C)[C@H](C(=O)N[C@H]2Cc3cc(O)cc(c3)-c3ccc4c(c3)c(c(-c3cncc(CCN(C)C)c3)n4CC)CC(C)(C)COC(=O)[C@@H]3CCCN(N3)C2=O)C(C)C)C1 [Example A081] | 1 to 10 µM | > 10 µM |
| C=CC(=O)N1CC[C@H](C(=O)N(C)[C@H](C(=O)N[C@H]2Cc3cc(O)cc(c3)-c3ccc4c(c3)c(c(-c3ncccc3COC)n4CC)CC(C)(C)COC(=O)[C@@H]3CCCN(N3)C2=O)C(C)C)C1 [Example A084] | > 10 µM | > 10 µM |
| C=CC(=O)N1CC[C@H](C(=O)N(C)[C@H](C(=O)N[C@H]2Cc3cc(O)cc(c3)-c3ccc4c(c3)c(c(-c3nccnc3COC)n4CC)CC(C)(C)COC(=O)[C@@H]3CCCN(N3)C2=O)C(C)C)C1 [Example A085] | > 10 µM | > 10 µM |
| CCn1c(-c2cnccc2COC)c2c3cc(ccc31)-c1cc(O)cc(c1)C[C@H](NC(=O)[C@H](C(C)C)N(C)C(=O)[C@H]1CCN(C(=O)C#CCN(C)C)C1)C(=O)N1CCC[C@H](N1)C(=O)OCC(C)(C)C2 [Example A088] | 0.1 to 1 µM | 1 to 10 µM |
| C=CC(=O)N1CC[C@H](C(=O)N(C)[C@H](C(=O)N[C@H]2Cc3cc(O)cc(c3)-c3ccc4c(c3)c(c(-c3cccnc3CN(C)C)n4CC)CC(C)(C)COC(=O)[C@@H]3CCCN(N3)C2=O)C(C)C)C1 [Example A092] | 1 to 10 µM | > 10 µM |
| C=CC(=O)N1CC[C@H](C(=O)N(C)[C@H](C(=O)N[C@H]2Cc3cc(O)cc(c3)-c3ccc4c(c3)c(c(-c3cccnc3COC)n4CC#N)CC(C)(C)COC(=O)[C@@H]3CCCN(N3)C2=O)C(C)C)C1 [Example A093] | 0.1 to 1 µM | 1 to 10 µM |
| C=CC(=O)N1CC[C@H](C(=O)N(C)[C@H](C(=O)N[C@H]2Cc3nc(cs3)-c3ccc4c(c3)c(c(-c3cccnc3COC)n4CC)CC(C)(C)COC(=O)[C@@H]3CCCN(N3)C2=O)C(C)C)C1 [Example A094] | > 10 µM | > 10 µM |
| CCn1c(-c2cccnc2COC)c2c3cc(ccc31)-c1cc(O)cc(c1)C[C@H](NC(=O)[C@H](C(C)C)N(C)C(=O)C1CN(C(=O)C#CCN(C)C)C1)C(=O)N1CCC[C@H](N1)C(=O)OCC(C)(C)C2 [Example A097] | 0.1 to 1 µM | 1 to 10 µM |
| C=CC(=O)N1CC[C@H](C(=O)N(C)[C@H](C(=O)N[C@H]2Cc3cc(O)cc(c3)-c3ccc4c(c3)c(c(-c3ccc(C5CCN(C)CC5)nc3)n4CC)CC(C)(C)COC(=O)[C@@H]3CCCN(N3)C2=O)C(C)C)C1 [Example A098] | 1 to 10 µM | > 10 µM |
| C=CC(=O)N1CC[C@H](C(=O)N(C)[C@H](C(=O)N[C@H]2Cc3cc(O)cc(c3)-c3ccc4c(c3)c(c(-c3cnn(C)c3)n4CC)CC(C)(C)COC(=O)[C@@H]3CCCN(N3)C2=O)C(C)C)C1 [Example A099] | 1 to 10 µM | > 10 µM |
| C=CC(=O)N1CC[C@H](C(=O)N(C)[C@H](C(=O)N[C@H]2Cc3cc(O)cc(c3)-c3ccc4c(c3)c(c(-c3ccc(CN5CC[C@@H](O)C5)cc3)n4CC)CC(C)(C)COC(=O)[C@@H]3CCCN(N3)C2=O)C(C)C)C1 [Examples A001] | 1 to 10 µM | > 10 µM |

Reference: patent publication US11566007B2, “Ras inhibitors” (Revolution Medicines, Inc., priority 2019, dated 2023)
